Where a name gives a salt, the structure may show the parent alone.
Target: T1, CAT-1 (carnitine acyltransferase 1) (Rattus norvegicus, UniProt Q63704)
T1 construct: This preparation is used as the isolated mitochondrial preparation; from tissue; host or cells: rat heart (atria removed), isolated mitochondria
T1 sequence (Q63704 1-772): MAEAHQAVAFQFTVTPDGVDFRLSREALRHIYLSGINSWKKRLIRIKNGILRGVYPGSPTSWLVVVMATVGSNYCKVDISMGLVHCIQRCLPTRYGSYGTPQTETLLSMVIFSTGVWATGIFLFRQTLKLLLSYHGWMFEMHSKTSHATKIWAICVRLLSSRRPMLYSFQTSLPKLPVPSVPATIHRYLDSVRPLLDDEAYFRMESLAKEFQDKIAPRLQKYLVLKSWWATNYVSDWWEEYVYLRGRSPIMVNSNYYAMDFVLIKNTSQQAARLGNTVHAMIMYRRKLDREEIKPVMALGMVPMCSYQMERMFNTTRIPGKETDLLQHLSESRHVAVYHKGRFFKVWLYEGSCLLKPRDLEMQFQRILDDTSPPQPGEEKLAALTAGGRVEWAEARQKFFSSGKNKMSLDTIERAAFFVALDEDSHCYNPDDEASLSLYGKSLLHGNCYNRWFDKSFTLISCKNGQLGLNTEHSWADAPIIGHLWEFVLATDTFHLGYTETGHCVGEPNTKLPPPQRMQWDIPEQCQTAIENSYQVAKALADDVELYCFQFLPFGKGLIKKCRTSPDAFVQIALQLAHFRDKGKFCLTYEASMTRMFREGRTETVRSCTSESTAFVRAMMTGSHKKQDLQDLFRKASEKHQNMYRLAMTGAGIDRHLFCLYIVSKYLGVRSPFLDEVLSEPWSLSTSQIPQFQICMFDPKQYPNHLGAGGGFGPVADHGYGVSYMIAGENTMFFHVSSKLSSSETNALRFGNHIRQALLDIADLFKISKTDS
Assay: Primary Screen--Inhibition of CAT-1 in isolated mitochondria
Type: biochemical
Parameters: inhibition: dose or concentration left out as unconfirmed
Details: not given

Compound | IC50 [nM] | inhibition [%]
O=C(O)C(=O)c1ccc(OCCOc2cc3ccccc3c3ccccc23)cc1 [Example 110, alpha-oxo-4-[[2-(9-phenanthrenyloxy)ethyl]oxy]benzeneacetic acid] | 100 | –
Cc1nnc2n1-c1sc(C#CCOc3ccc(C(=O)C(=O)O)cc3)cc1C(c1ccccc1Cl)=NC2 [Example 294, 4-[3-[4-(2-chlorophenyl)-9-methyl-6H-thieno[3,2-f][1,2,4]triazolo[4,3-a][1,4]diazepin-2-yl]-2-propynyloxy]-alpha-oxobenzeneacetic acid] | 300 | –
O=C(O)C(=O)c1cc(Cl)c(OCCOc2ccc3ccccc3c2)c(Cl)c1 [Example 189, 3,5-dichloro-4-[2-(2-naphthalenyloxy)ethoxy]-alpha-oxobenzeneacetic acid (6:1) molar benzene solvate] | – | 28
Cc1nnc2n1-c1sc(CCCOc3ccc(C(=O)C(=O)O)cc3)cc1C(c1ccccc1Cl)=NC2 [Example 296] | 10000 | –
O=C(O)C(=O)c1ccc(OCC(=O)N2CCN(CCc3ccccc3C(F)(F)F)CC2)cc1 [Example 253, alpha-oxo-4-[2-oxo-2-[4-[2-[2-(trifluoromethyl)phenyl]ethyl]-1-piperazinyl]ethoxy]benzeneacetic acid (1:1) hydrochloride] | 500 | –

Same assay, conditions: @ 10 μM

Compound | inhibition at 10 µM [%]
CC(C)(C)c1cc(C(=O)CCCCOc2ccc(C(=O)C(=O)O)cc2)cc(C(C)(C)C)c1O [Example 266, 4-[5-[3,5-bis(1,1-dimethylethyl)-4-hydroxyphenyl]-5-oxopentyloxy]-alpha-oxobenzeneacetic acid] | 48

Same assay, conditions: rat heart mitochondria, reduction of palmitoyl carnitine formation by 50%; read-out: Primary Screen IC50

Compound | IC50 [nM]
O=C(O)C(=O)c1ccc(C#CCNC(=O)c2ccc3ccccc3c2)cc1 [Example 146, 4-[3-[[(2-naphthalenyl)carbonyl]amino]-1-propynyl]-alpha-oxobenzeneacetic acid] | 5500
O=C(O)C(=O)c1ccc(OCc2ccc3ccccc3n2)cc1 [Example 159, 4-[(2-quinolinyl)methoxy]-alpha-oxo-benzeneacetic acid] | 5100
O=C(O)/C(=N/OCc1ccccc1)c1ccc(OCCOc2ccc3ccccc3c2)s1 [Example 315, (Z)-5-[2-(2-naphthalenyloxy)ethoxy]-alpha-[(phenylmethoxy)imino]-2-thiopheneacetic acid] | 140
CC(=O)c1ccc(OCCCOc2ccc(C(=O)C(=O)O)cc2)cc1O [Example 273, 4-[3-(4-acetyl-3-hydroxyphenoxy)propoxy]-alpha-oxobenzeneacetic acid] | 730
O=C(O)C(=O)c1ccc([S+]([O-])CCOc2ccc3ccccc3c2)cc1 (racemic) [Example 151, rac.-4-[[2-(2-naphthalenyloxy)ethyl]sulfinyl]-alpha-oxobenzeneacetic acid] | 5500
CCO/N=C(\C(=O)O)c1ccc(OCCOc2ccc3ccccc3c2)s1 [Example 310, (E)-alpha-(ethoxyimino)-5-[2-(2-naphthalenyloxy)ethoxy]-2-thiopheneacetic acid] | 240
O=C(O)C(=O)c1ccc(OCCOc2ccc(C(=O)C(=O)O)cc2)cc1 [Example 55] | 6000
Cc1ccc(OCCOc2ccc(C(=O)C(=O)O)cc2)cc1 [Example 49, 4-[[2-(4-methylphenoxy)ethyl]oxy]-alpha-oxobenzeneacetic acid] | 4000
O=C(O)C(F)(F)c1ccc(OCCOc2ccccc2)cc1 [Example 11, alpha, alpha-difluoro-4-[[2-(phenoxy)ethyl]oxy]benzeneacetic acid] | 18000
O=C(O)C(=O)c1ccc(NCCOc2ccc3ccccc3c2)cc1 [Example 168, 4-[[2-(2-naphthalenyloxy)ethyl]amino]-alpha-oxobenzeneaceticacid] | 700
CCC(C)(C)C(=O)Oc1cccc2ccc(OCCOc3ccc(C(=O)C(=O)OC)cc3)cc12 [Example 133, 4-[[2-[8-(2,2-dimethyl-1-oxobutoxy)-2-naphthalenyloxy]ethyl]oxy]-alpha-oxobenzeneacetic acid methyl ester] | 35000
O=C(O)C(=O)c1ccc(OCCOc2ccc3ccncc3c2)cc1 [Example 129, 4-[[2-(7-isoquinolyloxy)ethyl]oxy]-alpha-oxobenzeneacetic acid (5:2) molar hydrate] | 440
O=C(O)C(=O)c1ccc(OCc2ccccc2)cc1 [Example 19, 4-[(phenylmethyl)oxy]-alpha-oxobenzeneacetic acid] | 90000
O=C(O)C(=O)c1ccc(OCC(=O)N2CCOCC2)cc1 [Example 255, 4-[2-(4-morpholinyl)-2-oxoethoxy]-alpha-oxobenzeneacetic acid] | 12000
O=C(O)C(=O)c1ccc(OCCCCc2cccnc2)cc1 [Example 123, alpha-oxo-4-[4-(3-pyridinyl)butoxy]benzeneacetic acid] | 1500
O=C(C(=O)N(CCO)CCO)c1ccc(OCCOc2ccc3ccccc3c2)cc1 [Example 163, N,N-bis(2-hydroxyethyl)-4-[[2-(2-naphthalenyloxy)ethyl]oxy]-alpha-oxobenzeneacetamide] | 3500
O=C(O)C(=O)c1ccc(OCC(=O)N2CCc3ccccc3C2)cc1 [Example 251, 4-[2-oxo-2-(1,2,3,4-tetrahydro-2-isoquinolinyl)ethoxy]-alpha-oxobenzeneacetic acid] | 400

Compound | IC50 [nM]
O=C(O)C(=O)c1ccc(OCCOCCOc2ccccc2)cc1 [Example 77, 4-[[2-[[2-(phenoxy)ethyl]oxy]ethyl]oxy]-alpha-oxobenzeneacetic acid] | 2000
CC1(C)OCC(COC(=O)C(=O)c2ccc(OCCOc3ccc4ccccc4c3)cc2)O1 (racemic) [Example 169, rac.-4-[[2-(2-naphthalenyloxy)ethyl]oxy]-alpha-oxobenzeneacetic acid (2,2-dimethyl-1,3-dioxolan-4-yl)methyl ester] | 3500
CC(C)(C)c1cc(SCCCOc2ccc(C(=O)C(=O)O)cc2)cc(C(C)(C)C)c1O [Example 275, 4-[3-[[3,5-bis(1,1-dimethylethyl)-4-hydroxyphenyl]thio]propoxy]-alpha-oxobenzeneacetic acid] | 570
O=C(O)C(=O)c1ccc(OCC(=O)N2CCN(c3ccccc3)CC2)cc1 [Example 249, 4-[2-oxo-2-(4-phenyl-1-piperazinyl)ethoxy]-alpha-oxobenzeneacetic acid] | 10000
O=C(O)C(=O)c1ccc(OCc2cc3ccccc3o2)cc1 [Example 141, 4-[[2-benzofuranyl)methoxy]-alpha-oxobenzeneacetic acid] | 700
O=C(O)C(=O)c1ccc(OCCOc2ccc3cccnc3c2)cc1 [Example 127, alpha-oxo-4-[[2-(7-quinolyloxy)ethyl]oxy]benzeneacetic acid monohydrate] | 260
O=C(O)C(=O)c1ccc(OCCCCCOc2ccccc2)cc1 [Example 73, alpha-oxo-4-[[(5-phenoxy)pentyl]oxy]benzeneacetic acid] | 5000
O=C(O)C(=O)c1ccc(OCCOc2ccc([N+](=O)[O-])cc2)cc1 [Example 47, 4-[[2-(4-nitrophenoxy)ethyl]oxy]-alpha-oxobenzeneacetic acid] | 3000
COc1ccc(OCCOc2ccc(C(=O)C(=O)O)cc2)cc1OC [Example 63, 4-[[2-(3,4-dimethoxyphenoxy)ethyl]oxy]-alpha-oxobenzeneacetic acid] | 3000
O=C(O)C(=O)c1ccc(OCCCCc2ccncc2)cc1 [Example 125, alpha-oxo-4-[4-(4-pyridinyl)butoxy]benzeneacetic acid] | 2000
O=C(O)C(=O)c1ccc(OCc2ccc3ccccc3c2)cc1 [Example 155, 4-[(2-naphthalenyl)methoxy]-alpha-oxobenzeneacetic acid] | 220
O=C(O)C(=O)c1ccc(OCCOc2ccc(Oc3ccccc3)cc2)cc1 [Example 59, alpha-oxo-4-[[2-(4-phenoxyphenoxy)ethyl]oxy]benzeneacetic acid] | 10000
O=C(O)C(=O)c1ccc(SCCOc2ccc3ccccc3c2)cc1 [Example 149, 4-[[2-(2-naphthalenyloxy)ethyl]thio]-alpha-oxobenzeneacetic acid] | 80
COc1cc(OCCOc2ccc(C(=O)C(=O)O)cc2)cc(OC)c1OC [Example 65, 4-[[2-(3,4,5-trimethoxyphenoxy)ethyl]oxy]-alpha-oxobenzeneacetic acid] | 3000
O=C(O)C(=O)c1ccc(OCCOCCOc2ccc(C(=O)C(=O)O)cc2)cc1 [Example 78, 4,4'-[oxybis(2,1-ethanedienyloxy)]bis(alpha-oxobenzeneacetic acid)] | 2000
CCO/N=C(/C(=O)O)c1ccc(OCCOc2ccc3ccccc3c2)s1 [Example 309, (Z)-alpha-(ethoxyimino)-5-[2-(2-naphthalenyloxy)ethoxy]-2-thiopheneacetic acid] | 20
O=C(O)C(=O)c1ccc(OCOc2ccccc2)cc1 [Example 67, alpha-oxo-4-[[(phenoxy)methyl]oxy]benzeneacetic acid] | 15000
